Like-named read-outs stand apart in the source and are kept apart here.
Key:
[1] = tested on: CCRF-CEM; assay: Cell viability assay (DAPI, flow cytometry), CCRF-CEM; type: cell-based; conditions: for IC50: Homo sapiens, CCRF-CEM, 48 h, mean ± SEM, N/A: not active; for SI: selectivity index, CCRF-CEM: ratio of IC50 in the MNC line over IC50 in the leukemia cell line
Method: (§1) Cell lines were cultured in RPMI 1640 medium (Roswell Park Memorial Institute medium) supplemented with 10% fetal bovine serum (FBS) and 1% penicillin–streptomycin. Cultures were maintained at 37 °C in a humidified incubator with 5% CO2. All biological evaluations were performed using cell between passages 3 and 4. All compounds were dissolved in dimethyl sulfoxide (DMSO) at a concentration of 20 mg/mL. In all assays, culture medium containing 0.1% DMSO was used as the negative control, while dasatinib was included as the positive control. Normal mononuclear cells (MNCs) were included as the normal cell control. All experiments were performed in triplicate. Leukemic cell lines and normal mononuclear cells (MNCs) were used to evaluate the cytotoxicity of the compounds. Leukemic cells (1 × 10^5 cells/well) were cultured in 96-well plates and treated with increasing concentrations of compounds (0.02, 0.2, 2.0, and 20 µM) for 48 h. After incubation, both leukemic cells and MNCs were collected, washed with phosphate-buffered saline (PBS), and stained with DAPI (500 ng/mL) for 15 min in darkness, following the manufacturer’s instructions. Fluorescence was analyzed using a FACSVerse flow cytometer (BD Bioscience, San Jose, CA, USA). Flow cytometry data were analyzed using FlowJo^TM software (version 10.9). […] All experiments were performed in triplicate, and results were expressed as means ± standard errors of the means (SEMs). Statical analysis was performed using one-way analysis of variance (ANOVA), followed by Dunnett’s post hoc test to compare treated groups against the control.

[2] = tested on: REH; assay: Cell viability assay (DAPI, flow cytometry), REH; type: cell-based; conditions: for IC50: Homo sapiens, REH, 48 h, mean ± SEM, N/A: not active; for SI: selectivity index, REH: ratio of IC50 in the MNC line over IC50 in the leukemia cell line
Method: as §1

[3] = tested on: JURKAT; assay: Cell viability assay (DAPI, flow cytometry), JURKAT; type: cell-based; conditions: for IC50: Homo sapiens, Jurkat, 48 h, mean ± SEM, N/A: not active; for SI: selectivity index, JURKAT: ratio of IC50 in the MNC line over IC50 in the leukemia cell line
Method: as §1

[4] = tested on: MOLT-4; assay: Cell viability assay (DAPI, flow cytometry), MOLT-4; type: cell-based; conditions: for IC50: Homo sapiens, MOLT-4, 48 h, mean ± SEM, N/A: not active
Method: as §1

[5] = tested on: THP-1; assay: Cell viability assay (DAPI, flow cytometry), THP-1; type: cell-based; conditions: for IC50: Homo sapiens, THP-1, 48 h, mean ± SEM, N/A: not active; for SI: selectivity index, THP-1: ratio of IC50 in the MNC line over IC50 in the leukemia cell line
Method: as §1

[6] = Cell viability assay in normal mononuclear cells; type: cell-based, human; conditions: human
Method: (§2) All compounds were dissolved in dimethyl sulfoxide (DMSO) at a concentration of 20 mg/mL. In all assays, culture medium containing 0.1% DMSO was used as the negative control, while dasatinib was included as the positive control. Normal mononuclear cells (MNCs) were included as the normal cell control. All experiments were performed in triplicate. Normal mononuclear cells (MNCs) were isolated from peripheral blood mononuclear cells obtained from healthy human donors. Cell collection was conducted in accordance with institutional guidelines, including written informed consent from each participant. All procedures were approved by Ethics and Scientific Committee of the Mexican Institute of Social Security (IMSS, ethical approval number: CNIC R-2021-785-025). The MNCs were purified using FicollPaque Plus (Pharmacia Biotech, Uppsala, Sweden) by centrifugation at 400× g for 30 min at room temperature, following the manufacturer’s protocol. The resulting cells were resuspended in RPMI-1640 medium supplemented with 10% fetal bovine serum (FBS) and counted using a hemocytometer after trypan blue staining, confirming a viability of 95% [56]. […] After incubation, both leukemic cells and MNCs were collected, washed with phosphate-buffered saline (PBS), and stained with DAPI (500 ng/mL) for 15 min in darkness, following the manufacturer’s instructions. Fluorescence was analyzed using a FACSVerse flow cytometer (BD Bioscience, San Jose, CA, USA). Flow cytometry data were analyzed using FlowJo^TM software (version 10.9). […] All experiments were performed in triplicate, and results were expressed as means ± standard errors of the means (SEMs). Statical analysis was performed using one-way analysis of variance (ANOVA), followed by Dunnett’s post hoc test to compare treated groups against the control.

[7] = tested on: leukemia cell lines (CCRF-CEM, REH, JURKAT, MOLT-4, THP-1); assay: Cell viability assay, all leukemia cell lines tested (summary statements); type: cell-based; conditions: for IC50 / IC50 across all leukemia cell lines tested: 48 h, summary over CCRF-CEM, REH, JURKAT, MOLT-4, THP-1; for IC50: read-out: IC50 across all leukemia cell lines tested
Method: as §1

[8] = tested on: MOLT-4 cell line; assay: Apoptosis assay (annexin V-FITC/DAPI flow cytometry), MOLT-4; type: cell-based
Method: (§3) Since compound T1c was the only derivative that decreased the cell viability of leukemic cells (IC50 ≤ 20 µΜ), without affecting viability in normal MNC cells, its mode of action to exert cytotoxic effects was evaluated by flow cytometry techniques, determining the apoptotic effect at 48 h, using ½ IC50 and IC50 concentrations obtained in the viability assay in the different leukemia cell lines. Dasatinib at different concentrations was included as a positive control. Cell death was quantified by dual staining with annexin V-FITC and DAPI. Annexin V binds to externalized phosphatidylserine residues during early and late apoptosis, whereas DAPI penetrates membrane-compromised cells, distinguishing between late apoptotic and necrotic cells. The total percentage of apoptotic cells was calculated as the sum of early and late apoptotic populations. The results were normalized to 100% with respect to the negative control.
(§4) Apoptosis induction was evaluated by flow cytometry. Cells (1 × 10^5 cells/well) were cultured in 96-well plates and exposed to the compounds at two concentrations (½ and 1 × IC50). After 48 h of treatment, the cells were washed with phosphate-buffered saline (PBS) and stained with annexin V-FITC (BD Bioscience) for 15 min in the dark. Following a second PBS wash, the cells were stained with DAPI (500 ng/mL) for 15 min in darkness. The stained samples were subsequently analyzed on a FACSVerse cytometer (BD Bioscience, San Jose, CA, USA).

[9] = tested on: CCRF-CEM cell line; assay: Apoptosis assay (annexin V-FITC/DAPI flow cytometry), CCRF-CEM; type: cell-based
Method: as §3, §4

[10] = tested on: JURKAT cell line; assay: Apoptosis assay (annexin V-FITC/DAPI flow cytometry), JURKAT; type: cell-based
Method: as §3, §4

[11] = tested on: THP-1 cell line; assay: Apoptosis assay (annexin V-FITC/DAPI flow cytometry), THP-1; type: cell-based
Method: as §3, §4

[12] = tested on: peripheral blood mononuclear cells (MNCs); assay: Cell viability assay in normal mononuclear cells; type: cell-based, human
Method: as §2

[13] = tested on: K562 cells; design: method as in PMID 36080390; conditions: cited from earlier work
[14] = tested on: HL-60 cells; design: method as in PMID 36080390; conditions: cited from earlier work
[15] = MOLT-4, positive control (dasatinib), 48 h
[16] = positive control (dasatinib), 48 h
[17] = THP-1, positive control (dasatinib), 48 h

## C=C(C=O)C1CCC2(C(=O)O)CCC3(C)C(CCC4C5(C)CCC(O)C(C)(CO)C5CCC43C)C12 (stereo not drawn) [Compound T1c, 3α,24-dihydroxy-30-oxolup-20(29)-en-28-oic acid]
[1]
  IC50: 17.8 ± 1 µM
  SI: selectivity index, CCRF-CEM: 75.02
[2]
  IC50: > 20 µM
  SI: selectivity index, REH: 53.55
[3]
  IC50: 18.7 ± 1.4 µM
  SI: selectivity index, JURKAT: 71.46
[4]
  IC50: 13.9 ± 0.7 µM
[5]
  IC50: 12.9 ± 0.1 µM
  SI: selectivity index, THP-1: 103.46
[6]
  IC50 at 48 h: > 200 µM
[7]
  IC50: 12.9 to 24.9 µM
[7]; summary statement
  SI (selectivity against leukemia cell lines vs MNCs): > 10
[8]; MOLT-4, IC50, 48 h
  apoptosis rate (early + late): 94.58 ± 0.45%
  early apoptotic cells: 30.12%
  late apoptotic cells: 64.46%
[8]; MOLT-4, ½ IC50, 48 h
  apoptosis rate (early + late): 69.91 ± 2.17%
  early apoptotic cells: 41.15%
  late apoptotic cells: 28.76%
[9]; IC50, 48 h
  apoptosis rate (early + late): 97.13 ± 0.36%
  early apoptotic cells: 16.92%
  late apoptotic cells: 80.21%
[9]; ½ IC50, 48 h
  apoptosis rate (early + late): 62.40 ± 1.57%
  early apoptotic cells: 16.98%
  late apoptotic cells: 45.42%
[10]; IC50, 48 h
  apoptosis rate (early + late): 96.37 ± 0.49%
  early apoptotic cells: 47.61%
  late apoptotic cells: 48.72%
[10]; ½ IC50, 48 h
  apoptosis rate (early + late): 67.14 ± 2.18%
  early apoptotic cells: 30.60%
  late apoptotic cells: 36.55%
[11]; THP-1, IC50, 48 h
  apoptosis rate (early + late): 52.23 ± 1.69%
  early apoptotic cells: 22.84%
  late apoptotic cells: 29.39%
[11]; THP-1, ½ IC50, 48 h
  apoptosis rate (early + late): 29.40 ± 2.66%
  early apoptotic cells: 14.50%
  late apoptotic cells: 14.90%

## C=C(C)C1CCC2(C(=O)O)CCC3(C)C(CCC4C5(C)CCC(OC)C(C)(CO)C5CCC43C)C12 (stereo not drawn) [Compound T1a, 3α-methoxy-24-hydroxylup-20(29)-en-28-oic acid]
[2]
  IC50: > 20 µM
[12]
  IC50 MNCs: no activity

## Cc1nc(Nc2ncc(C(=O)Nc3c(C)cccc3Cl)s2)cc(N2CCN(CCO)CC2)n1 [Dasatinib, dasatinib, reference compound]
[1]
  IC50: 10.8 ± 1.2 µM
[2]
  IC50: 5.43 ± 0.3 µM
[3]
  IC50: 5.26 ± 0.5 µM
[4]
  IC50: 2.63 ± 0.1 µM
[5]
  IC50: 4.66 ± 0.3 µM
[8]; [15]
  early apoptotic cells: 1.40%
  late apoptotic cells: 94.74%
[8]; MOLT-4, positive control (dasatinib), 48 h, normalized to negative control
  apoptosis rate (early + late): 96.13 ± 0.71%
[10]; [16]
  apoptosis rate (early + late): 97.19 ± 0.11%
  early apoptotic cells: 0.59%
  late apoptotic cells: 96.60%
[11]; [17]
  apoptosis rate (early + late): 32.14 ± 3.15%
  early apoptotic cells: 7.21%
  late apoptotic cells: 24.93%

## C=C(C)C1CCC2(C(=O)O)CCC3(C)C(CCC4C5(C)CCC(OC(C)=O)C(C)(CO)C5CCC43C)C12 (stereo not drawn) [Compound T1e, 3α-acetyl-24-hydroxylup-20(29)-en-28-oic acid]
[12]
  IC50 MNCs: no activity
[7]
  IC50 across all leukemia cell lines tested: no activity

## C=C(C=O)[C@@H]1CC[C@]2(C(=O)O)CC[C@]3(C)C(CCC4[C@@]5(C)CC[C@@H](O)[C@@](C)(CO)C5CC[C@]43C)C12 (stereo partly drawn) [Compound T2, 3α,23-dihydroxy-30-oxolup-20(29)-en-28-oic acid]
[1]
  IC50: > 20 µM
  SI: selectivity index, CCRF-CEM: 19.48
[2]
  IC50: > 20 µM
  SI: selectivity index, REH: 11.40
[3]
  IC50: > 20 µM
  SI: selectivity index, JURKAT: 8.56
[6]
  IC50 at 48 h: > 200 µM
[13]; at 102 µM
  K562 cell viability: 88.6 ± 0.40%
[13]; at 204 µM
  K562 cell viability: 24.3 ± 1.95%
[14]; at 102 µM
  HL-60 cell viability: 88.35 ± 3.85%
[14]; at 204 µM
  HL-60 cell viability: 85.15 ± 3.05%

## C=C(C=O)C1CCC2(C(=O)O)CCC3(C)C(CCC4C5(C)CCC(OC)C(C)(CO)C5CCC43C)C12 (stereo not drawn) [Compound T1b, 3α-methoxy-24-hydroxy-30-oxolup-20(29)-en-28-oic acid]
[1]
  IC50: 6.87 ± 0.6 µM
  SI: selectivity index, CCRF-CEM: 1.59
[2]
  IC50: 9.46 ± 3.2 µM
  SI: selectivity index, REH: 1.13
[3]
  IC50: 15 ± 1.6 µM
  SI: selectivity index, JURKAT: 0.72
[4]
  IC50: 4.05 ± 0.1 µM
[4]; ratio of IC50 in the MNC line over IC50 in the leukemia cell line
  SI: selectivity index, MOLT-4: 2.66
[5]
  IC50: 11.04 ± 0.1 µM
  SI: selectivity index, THP-1: 0.97
[6]
  IC50 at 48 h: 10.8 ± 1.3 µM
[7]
  IC50: 4.05 to 15 µM

## C=C(CO)C1CCC2(C(=O)O)CCC3(C)C(CCC4C5(C)CCC(O)C(C)(CO)C5CCC43C)C12 (stereo not drawn) [Compound T1d, 3α,24,30-trihydroxylup-20(29)-en-28-oic acid]
[12]
  IC50 MNCs: no activity
[7]
  IC50 across all leukemia cell lines tested: no activity

## C=C(C)C1CCC2(C(=O)O)CCC3(C)C(CCC4C5(C)CCC(O)C(C)(CO)C5CCC43C)C12 (stereo not drawn) [Compound T1, 3α,24-dihydroxylup-20(29)-en-28-oic acid]
[6]
  IC50 at 48 h: > 200 µM
[7]
  IC50 across all leukemia cell lines tested: no activity
